Patent US20090263356A1, “ANTI-ANGIOGENIC COMPOSITION COMPRISING GRAIN-DERIVED COMPONENT AS ACTIVE INGREDIENT” (SANWA SHURUI CO., LTD., priority 2005, published 2009)

How the values were obtained:
[1] = tested on: Human vascular endothelial cells and fibroblasts (co-culture); assay: Experiment on vascularization inhibition (luminal formation), Experiments 1 and 4; assay type: cell-based; settings: suramin 25 μM final, VEGF-A 5 ng/ml, 11-day culturing; for AREA (area of vascular tube region): smaller = larger inhibition
Description: (§1) 1,000 μg of each specimen was weighed and dissolved in 1 ml of a culture medium. The resulting culture medium was sterilized by filtration (0.22 μm), diluted 10 fold (three times), to prepare samples at concentrations of 10 μg/ml to 1,000 μg/ml as shown in Table 1 (the contents of the test samples for use in assessing the effect on inhibiting vascularization).
(§2) Human vascular endothelial cells and fibroblasts were co-cultured at their optimal concentrations. At the proliferation state at an early stage of luminal formation, the individual samples (1-1-1, the negative controls, the positive controls) were added for 11-day culturing (the culture media containing the samples were exchanged 4, 7 and 9 days later). […] So as to evaluate the effect on inhibiting vascularization, the formed lumen-like network structure was observed.
Photographs of the vascular tube tissues were incorporated as digital data, to measure the area of a vascular tube region (black region) at several points randomly selected to determine the effect on inhibiting vascularization.
VEGF-A as a vascularization-promoting factor was added at an amount of 5 ng/ml (as the final concentration) Suramin as a positive control with an observed effect on inhibiting vascularization was added at an amount of 25 μM (as the final concentration)
as §1, with “Table 4” for “Table 1”, “of” for “of the”, “for” for “for use in”, “assessing vascularization inhibitory effect).” for “assessing the effect on inhibiting vascularization).”
as §2, with “Regarding” for “So as to evaluate”, “evaluated.” for “observed.”
Photographs of blood tube tissues were incorporated as digital data, to measure the area of the blood tube region (black part) at several positions randomly selected, to determine the inhibitory effect of vascularization.

[2] = tested on: Human vascular endothelial cells and fibroblasts (co-culture); assay: Experiment on vascularization inhibition (lumen formation, KURABO kit), Experiments 2 and 5; assay type: cell-based; settings: Suramin 50 μM final, VEGF-A 5 ng/ml, 11-day culturing
Description: 1,000 μg of each specimen was weighed and dissolved in 1 ml of a culture medium. The resulting culture medium was sterilized by filtration (0.22 μm), diluted 10 fold (three times), to prepare samples at concentrations of 10 μg/ml to 1,000 μg/ml.
Human vascular endothelial cells and fibroblasts were co-cultured at their optimal concentrations. At the proliferation state at an early stage of luminal formation, the individual samples were added for 11-day culturing (the culture media containing the samples were exchanged 4, 7 and 9 days later). […] As standards for the evaluation, VEGF-A promoting luminal formation was added at […], while suramin inhibiting luminal formation was added at 50 μM, in the same manner. A control was prepared without any addition. Regarding the effect on inhibiting vascularization, the formed lumen-like network structure was evaluated.
Method: A kit manufactured by KURABO was used for measurement. […] VEGF as a vascularization promoting factor and suramin as an agent for suppressing vascularization were concurrently present in a control, so as to compare the lumen formation state in the co-existence of VEGF and each sample.
Concentration of a sample added: 10, 100 and 1,000 μg/ml (Suramin was added in all of the cases at the same concentration; 50 μM)
VEGF-A as a vascularization-promoting factor was added at an amount of 5 ng/ml (as the final concentration) Suramin as a positive control with an observed effect on inhibiting vascularization was added at an amount of 50 μM (as the final concentration)
1,000 μg of each specimen was weighed and dissolved in 1 ml of a culture medium. The resulting culture medium was sterilized by filtration (0.22 μm) and diluted 10 fold (three times), to prepare samples at concentrations of 10 μg/ml to 1,000 μg/ml.
Concentration of a sample added: 10, 100 and 1000 μg/ml (Suramin was added in all of the cases at the same concentration; 50 μM)

Which JOINT ([1]; listed as A3) does the source give for Cc1ccc(C(=O)Nc2ccc(S(=O)(=O)O)c3cc(S(=O)(=O)O)cc(S(=O)(=O)O)c23)cc1NC(=O)c1cccc(NC(=O)Nc2cccc(C(=O)Nc3cc(C(=O)Nc4ccc(S(=O)(=O)O)c5cc(S(=O)(=O)O)cc(S(=O)(=O)O)c45)ccc3C)c2)c1 [Suramin, suramin] here?
Its JOINT is 11.

And the LENGTH ([1]; listed as A3)?
The LENGTH was 4583.

What about the PATH ([1]; listed as A3) of the same compound?
Its PATH is 107.

And the JOINT ([1]; listed as A4)?
The JOINT was 16.

And the LENGTH ([1]; listed as A4)?
The LENGTH was 5311.

What about the PATH ([1]; listed as A4) of the same compound?
Its PATH is 128.

And the “AREA (area of vascular tube region)” value ([1]; listed as A3)?
The value was 27940.

And the “AREA (area of vascular tube region)” value ([1]; listed as A4)?
The value was 33301.

What about the AREA [2] of the same compound?
Its AREA is 30401.

What about the JOINT [2] of the same compound?
Its JOINT is 413.

What about the LENGTH [2] of the same compound?
The LENGTH was 6396.
